Test results taken from US7473437B2, “Method of forming fluorescent image, fluorescent image, and ink-jet recording method” (Canon Kabushiki Kaisha, priority 2004, dated 2009).
“And” between values parts separate entries of the source, which are not always exact repeats. Identical values can stand only once.

How the values were obtained:
Format in all cases: physicochemical
[1] = Fluorescent coloring material content causing concentration quenching; conditions: image printed on a recording material
Method: The following respective components as ink composition to be used were mixed and sufficiently stirred, and the resultant was dissolved and/or dispersed. After that, the resultant was filtered through a Phloropore filter (trade name; manufactured by Sumitomo Electric Industries, Ltd.) having a pore size of 0.1 μm under pressure to prepare each ink. An ink 1, an ink 2, an ink 3, and an ink 5 were defined as inks of Examples and an ink 4 was defined as Reference Example. The content of each fluorescent coloring material in ink for causing the concentration quenching of a fluorescent image printed on a recording material is 0.3% by mass or more for C.I. Acid Red 52, 2.0% by mass or more for C.I. Acid Red 92, or more than 2.0% by mass for the compound (A).
In each of the above ink compositions, the fluorescence intensity of each of the inks 1 to 4 was measured by means of a commercially available fluorescence measuring device […] (trade name; manufactured by JASCO Corporation).

[2] = Fluorescent emission and excitation spectra of evaporated ink (FP-750); conditions: standard excitation wavelength 254 nm
Method: At first, a predetermined amount (in this case, 0.3% by mass with respect to the solution) of C.I. Acid Red 52 (AR52) as the first fluorescent coloring material was dissolved into an aqueous solution (an organic solvent such as glycerin and purified water), followed by heating at 60° C. to completely vaporize water content, resulting in ink (hereinafter, referred to as evaporated ink).
The fluorescent emission spectra and excitation spectra of the first and second fluorescent coloring materials were measured using a fluorometer FP-750 (trade name; manufactured by JASCO Corporation). Each measurement sample was an ink from which water content was evaporated to remove the influence of water on the measurement.

[3] = Light absorption spectrum of coloring materials
Method: Next, the multiple fluorescent coloring materials will be described more specifically with reference to multiple fluorescence examples and reference examples. Here, measurement values obtained with purified water diluted solutions of coloring materials were used for an absorption wavelength region, a maximum absorption wavelength region, and a fluorescence wavelength region. Using an absorption spectrometer, absorption wavelengths were measured. A diluted solution was prepared in such a manner that the absorbance thereof was in the range of 0.5 to 0.7. A higher region from a base line as the absorption peak of the coloring material was defined as an absorption wavelength region, and the peak value was defined as a maximum absorption wavelength. In addition, for fluorescence wavelengths, the measurement conditions were set so that the fluorescence intensities were not beyond the measurement threshold value. Then, fluorescence wavelengths were measured by using the diluted solution used in the measurement of absorbance and by fixing the excitation wavelengths of the first and second coloring materials at predetermined wavelengths. A region higher than the base line was defined as a fluorescent emission wavelength region.
The absorption wavelength regions of the first and second coloring materials were measured using a spectrophotometer U-3200 (trade name; manufactured by Hitachi Ltd.) after the dye had been diluted 100,000-fold with purified water. The absorption wavelength region of the first coloring material ranged from 450 to 620 nm, and the maximum absorption wavelength thereof was 565 nm. In addition, the absorption wavelength region of the second coloring material ranged from 300 to 450 nm, and the maximum absorption wavelength thereof was 372 nm.

fluorescent emission peak wavelength [2]	maximum absorption wavelength ([3]; dye diluted 100,000-fold with purified water, spectrophotometer U-3200)	absorption peak wavelength ([3]; from FIGS. 5, 6, 12, listed as AR52)	absorption peak wavelength ([3]; from FIGS. 5, 6, 12)	absorption spectrum range, visible light ([3]; from FIGS. 5, 6, 12)	Structure (SMILES)	content of fluorescent coloring material in ink causing concentration quenching of a printed fluorescent image [1]
600 nm	565 nm	565 nm and ~560 nm			CCN(CC)c1ccc2c(-c3ccc(S(=O)(=O)[O-])cc3S(=O)(=O)[O-])c3ccc(=[N+](CC)CC)cc-3oc2c1.[Na+] [C.I. Acid Red 52]	≥ 0.3 % by mass
					O=C([O-])c1c(Cl)c(Cl)c(Cl)c(Cl)c1-c1c2cc(Br)c(=O)c(Br)c-2oc2c(Br)c([O-])c(Br)cc12.[Na+].[Na+] [C.I. Acid Red 92]	≥ 2.0 % by mass
530 nm			490 nm	≤ 525 nm	O=C([O-])c1ccccc1-c1c2ccc(=O)cc-2oc2cc([O-])ccc12.[Na+].[Na+] [C.I. Acid Yellow 73, reference compound]	
